Test results published in patent US10301629B2, “Structure, manufacturing and uses of human-derived cell-permeable peptides conjugated with specific biologically active cargo peptides” (priority 2013, dated 2019).

Tested on: cytokine response to LPS
Assay: Mouse endotoxin (LPS) challenge, peptide pretreatment 30 minutes prior, plasma cytokines
Details: peptide 500 micrograms per mouse, dexamethasone 3 mg/kg, PPL-002 p<0.01
Experimental: The ability of peptide pretreatment to inhibit the inflammatory cytokine response or stimulate the anti-inflammatory cytokine response to LPS was determined 2 hours after LPS injection (FIG. 10).
Peptides were dosed both i.p. and i.v. at 500 micrograms per mouse (10 mg/kg) 30 minutes prior to challenge by injection of endotoxin (LPS) at a dose of 50 micrograms/kg.

## C[C@@H]1C[C@H]2[C@@H]3CCC4=CC(=O)C=C[C@]4(C)[C@@]3(F)[C@@H](O)C[C@]2(C)[C@@]1(O)C(=O)CO [Dexamethasone, dexamethasone, reference compound]
  IL-10 level after LPS challenge, i.p. pretreatment: no effect
